Reference: the Bradley open melting point set (2014)
Values joined by “and” are separate entries in the source; they are usually repeats but may differ in a detail not shown here. Equal entries are not always repeated. Structures can show the parent of a compound that is named as a salt.

Structure (SMILES)	melting point
Clc1cccc(Cl)c1N=C1NCCN1 [clonidine]	130 °C
Clc2cccc(Cl)c2N=C1/NCCN1 [clonidine]	130 °C
CC(C)(C)NCC(O)COc1cc(Cl)ccc1Cl (centres undefined) [cloranolol]	82 °C
c1cc2ccc3ccc4ccc5ccc6ccc1c1c2c3c4c5c61 [coronene]	438 °C and 440 °C
O=C(CO)[C@@]3(O)CC[C@H]2[C@@H]4CC\C1=C\C(=O)CC[C@]1(C)[C@H]4C(=O)C[C@@]23C [cortisone]	222 °C and 226 °C (2×)
C[C@]12CCC(=O)C=C1CC[C@@H]1[C@@H]2C(=O)C[C@@]2(C)[C@H]1CC[C@]2(O)C(=O)CO [cortisone]	222 °C
C/C=C/C=O [crotonaldehyde]	-76 °C
CC(C)c1ccccc1 [cumene]	-96 °C
N#CCC(N)=O [cyanoacetamide]	120 °C
Clc1nc(Cl)nc(Cl)n1 [cyanuric chloride]	147 °C
C1CCC1 [cyclobutane]	-90.7 °C
C1CCCCCCCCCCC1 [cyclododecane]	61 °C
OC1CCCCCCCCCCC1 [cyclododecanol]	78 °C
C1=CCCCCCCCCCC1 [cyclododecene_(trans)]	0 °C
O=C(Nc1ccccc1)OC1C=CC=CCC1OC(=O)Nc1ccccc1 (centres undefined) [cyclohepta-3,5-diene-1,2-diyl bis(phenylcarbamate)]	135 °C
O=C(Nc1ccccc1)OC1CCCCCC1OC(=O)Nc1ccccc1 (centres undefined) [cycloheptane-1,2-diyl bis(phenylcarbamate)]	174 °C
O=CC1CCCCC1 [cyclohexanecarbaldehyde]	34.5 °C
O=CC1CCCCC1 [cyclohexanecarboxaldehyde]	35 °C
OC1CCCCC1 [cyclohexanol] [listing 1 of 2 here]	25.9 °C
OC1CCCCC1 [cyclohexanol] [listing 2 of 2 here]	24 °C
ON=C1CCCCC1 [cyclohexanone oxime]	89 °C
C1=CCCCC1 [cyclohexene]	-104 °C
O=C=NC1CCCCC1 [cyclohexyl isocyanate]	-80 °C
NC1CCCCC1 [cyclohexylamine] [listing 1 of 2 here]	-18 °C
NC1CCCCC1 [cyclohexylamine] [listing 2 of 2 here]	-17 °C and -17.7 °C
C1CCCCCCC1 [cyclooctane]	15 °C
OC1CCCCCCC1 [cyclooctanol]	15 °C
O=C1CCCCCCC1 [cyclooctanone]	41 °C

Structure (SMILES)	melting point
C1CCCCCCCCCCCCCC1 [cyclopentadecane]	62 °C
O=C(O)C1CCCC1 [cyclopentanecarboxylic acid]	-7 °C
C1CC1 [cyclopropane]	-127 °C
Cc1ccccc1N1CCN(CCc2nnc3n2CCCC3)CC1 [dapiprazole]	158 °C
CCCCCCCCCC=O [decanal]	-5 °C
CCCCCCCCCCc1ccccc1 [decylbenzene]	-14 °C
C[C@H](CCC(=O)O)[C@H]1CC[C@H]2[C@@H]3CC[C@@H]4C[C@H](O)CC[C@]4(C)[C@H]3C[C@H](O)[C@]12C [deoxycholic acid]	174 °C
CC(CN1CCOCC1)C(C(=O)N1CCCC1)(c1ccccc1)c1ccccc1 (centres undefined) [dextromoramide]	180 °C
CCCCOC(=O)c1ccccc1C(=O)OCCCC [di-n-butyl phthalate]	-35 °C
c1ccc2c(c1)sc1ccccc12 [dibenzothiophene]	99 °C
BrCBr [dibromomethane]	-53 °C
N#CNC(=N)N [dicyandiamide]	210 °C
C1CCC(C2CCCCC2)CC1 [dicyclohexyl]	4 °C
ClC5(Cl)[C@]3(Cl)C(\Cl)=C(\Cl)[C@@]5(Cl)[C@H]4[C@H]1C[C@H]([C@@H]2O[C@H]12)[C@@H]34 [dieldrin]	175 °C
Cl\C1=C(/Cl)C2(Cl)C3C4CC(C3C1(Cl)C2(Cl)Cl)C5OC45 (centres undefined) [dieldrin]	176 °C
CCOCC [diethyl ether]	-116 °C
CCOP(O)OCC [diethyl phosphite]	-70 °C
CCOC(=O)c1ccccc1C(=O)OCC [diethyl phthalate]	-64 °C
CCNCC [diethylamine]	-50 °C
OCCOCCO [diethylene glycol]	-10 °C
OCCN1CCCCC1C(c1ccccc1)c1ccccc1 (centres undefined) [diphemethoxidine]	106 °C
O=C(Oc1ccccc1)c1ccccc1C(=O)Oc1ccccc1 [diphenyl phthalate]	75 °C
O=[PH](c1ccccc1)c1ccccc1 [diphenylphosphine oxide]	54 °C
CCCCCCCCCCCC#N [dodecanonitrile]	4 °C
Cl\C1=C(/Cl)C2(Cl)C3C4CC(C3C1(Cl)C2(Cl)Cl)C5OC45 (centres undefined) [endrin]	210 °C
ClCC1CO1 (centres undefined) [epichlorohydrin] [listing 1 of 2 here]	-57 °C
ClCC1CO1 (centres undefined) [epichlorohydrin] [listing 2 of 2 here]	-57.1 °C

The next lines start with the values.

melting point	Structure (SMILES)
-80 °C	CCCCSCCCC [di-n-butyl sulfide]
1 °C	CCCCCCCCSCCCCCCCC [di-n-octyl sulfide]
-102 °C	CCCSCCC [di-n-propyl sulfide]
162 °C	O=c1[nH]cnc2c1ncn2[C@H]1CC[C@@H](CO)O1 [didanosine]
140 °C	CCOC(=O)c1sc2sc(C(=O)OCC)c(C)c2c1C [diethyl 3,4-dimethylthieno[2,3-b]thiophene-2,5-dicarboxylate]
-43 °C	CCOC(=O)OCC [diethyl carbonate]
-70 °C	CCOC(=O)C(=O)C(=O)OCC [diethyl ketomalonate]
-50 °C	CCOC(=O)CC(=O)OCC [diethyl malonate]
-104 °C	CCSCC [diethyl sulfide]
-64 °C	COCCOCCOC [diethylene glycol dimethyl ether]
-132 °C	CC[SiH2]CC [diethylsilane]
178 °C	CC/C(=C(/CC)c1ccc(O)cc1)c1ccc(O)cc1 [diethylstilbestrol]
4 °C	CC(C)OC(=O)/N=N/C(=O)OC(C)C [diisopropyl azodicarboxylate]
90 °C	COC(=O)c1c(C)nn(C(=O)OC)c1C [dimethyl 3,5-dimethyl-1H-pyrazole-1,4-dicarboxylate]
-19 °C	COC(=O)/C=CC(=O)OC [dimethyl maleate]
-62 °C	COC(=O)CC(=O)OC [dimethyl malonate]
75 °C	COC(=O)c1ncoc1C(=O)OC [dimethyl oxazole-4,5-dicarboxylate]
162 °C	COC(=O)c1ccc(C(=O)OC)nc1 [dimethyl pyridine-2,5-dicarboxylate]
121 °C	COC(=O)c1cccc(C(=O)OC)n1 [dimethyl pyridine-2,6-dicarboxylate]
27 °C	COC(=O)CCCCCCCCC(=O)OC [dimethyl sebacate]
19 °C	COC(=O)CCC(=O)OC [dimethyl succinate]
110 °C	CS(C)(=O)=O [dimethyl sulfone]
142 °C	COC(=O)c1ccc(C(=O)OC)cc1 [dimethyl terephthalate]
157 °C	COC(=O)c1c(Cl)c(Cl)c(C(=O)OC)c(Cl)c1Cl [dimethyl tetrachloroterephthalate]
3 °C	COC(=O)OC [dimethyl_carbonate]

melting point	Structure (SMILES)
-98 °C	CSC [dimethyl_sulfide]
-61 °C	CN(C)C=O [dimethylformamide]
88 °C	O=C(CCC(=O)Oc1ccccc1)Oc1ccccc1 [diphenyl succinate]
84 °C	O=C(Cl)N(c1ccccc1)c1ccccc1 [diphenylcarbamyl chloride]
90.5 °C	c1ccc(Cc2ccccc2)cc1 [diphenylmethane] [listing 1 of 2 here]
24 °C	c1ccc(Cc2ccccc2)cc1 [diphenylmethane] [listing 2 of 2 here]
158 °C (2×) and 159 °C	CN(C)C(=O)Nc1ccc(Cl)c(Cl)c1 [diuron]
135 °C	CCC1OC(=O)C(C)C(OC2CC(C)(OC)C(O)C(C)O2)C(C)C(OC2OC(C)CC(N(C)C)C2O)C(C)(O)CC(C)C(=O)C(C)C(O)C1(C)O (centres undefined) [erythromycin]
-114 °C	CCO [ethanol]
141 °C	C#CC1(O)CCC2C3CCc4cc(O)ccc4C3CCC21C (centres undefined) [ethinylestradiol]
174 °C	CCOC(=O)c1sc(N)nc1C [ethyl 2-amino-4-methylthiazole-5-carboxylate]
92 °C	CCOC(=O)C(C#N)=C(SC)N(C)C [ethyl 2-cyano-3-(dimethylamino)-3-(methylthio)acrylate]
57 °C	CCOC(=O)c1csc(C)n1 [ethyl 2-methyl-1,3-thiazole-4-carboxylate]
150 °C	CCOC(=O)c1cc(O)c(O)c(O)c1 [ethyl 3,4,5-trihydroxybenzoate]
119 °C	CCOC(=O)C1=C(C)N=NC1C (centres undefined) [ethyl 3,5-dimethyl-1H-pyrazole-4-carboxylate]
125 °C	CCOC(=O)CCC(C)C1CCC2C3C(=O)C(Br)C4CC(OC(C)=O)CCC4(C)C3CC(OC(C)=O)C12C (centres undefined) [ethyl 3,12-bis(acetyloxy)-6-bromo-7-oxocholan-24-oate]
106 °C	CCOC(=O)c1c[nH]nc1N [ethyl 3-amino-1h-pyrazole-4-carboxylate]
75 °C	CCOC(=O)c1ccc(-n2cccc2)cc1 [ethyl 4-(1-pyrrolyl)benzoate]
89 °C	CCOC(=O)c1ccc(N)cc1 [ethyl 4-aminobenzoate]
47 °C	CCOC(=O)Cc1ccc(N)cc1 [ethyl 4-aminophenylacetate]
54 °C	CCOC(=O)c1ccc(Cl)c([N+](=O)[O-])c1 [ethyl 4-chloro-3-nitrobenzoate]
8 °C	CCOC(=O)c1ccc(OC)cc1 [ethyl 4-methoxybenzoate]
121 °C	CCOC(=O)c1cc(C)n(C2=CC(C)N=N2)n1 (centres undefined) [ethyl 5,5'-dimethyl-1'H-1,3'-bipyrazole-3-carboxylate]
103 °C	CCOC(=O)Nc1cccc([N+](=O)[O-])c1[N+](=O)[O-] [ethyl (2,3-dinitrophenyl)carbamate]
